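The compound was tested at five concentrations on cells cultured in 96-well plates, with a 48-hour exposure period. Here, GI50 denotes the concentration required for 50% inhibition of growth.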 Active and inactive are the calls of the source. Cut-off read from the data, not from the text of the source: active = GI50 up to about 1.1 µM and inactive = higher.
Experiments:
Test in all cases: NCI anticancer screen, dose series, 48 h
OVCAR-3 = system: OVCAR-3
UACC-62 = system: UACC-62
SK-OV-3 = system: SK-OV-3
UACC-257 = system: UACC-257
COLO 205 = system: COLO 205
SR = system: SR
OVCAR-4 = system: OVCAR-4
U-251 = system: U-251
MOLT-4 = system: MOLT-4
Malme-3M = system: Malme-3M
SW-620 = system: SW-620
HCT-15 = system: HCT-15
MDA-MB-231 = system: MDA-MB-231
EKVX = system: EKVX
CCRF-CEM = system: CCRF-CEM
LOX IMVI = system: LOX IMVI
MCF7 = system: MCF7
OVCAR-5 = system: OVCAR-5
NCI-H226 = system: NCI-H226
PC-3 = system: PC-3
MDA-N = system: MDA-N
M14 = system: M14
786-0 = system: 786-0
HL-60 = system: HL-60
NCI-H23 = system: NCI-H23
SF-268 = system: SF-268
SK-MEL-2 = system: SK-MEL-2
NCI/ADR-RES = system: NCI/ADR-RES
OVCAR-8 = system: OVCAR-8
SNB-75 = system: SNB-75
HCC 2998 = system: HCC 2998
UO-31 = system: UO-31
SNB-19 = system: SNB-19
A498 = system: A498
Hs-578T = system: Hs-578T
NCI-H460 = system: NCI-H460
HOP-92 = system: HOP-92
SF-539 = system: SF-539
SK-MEL-5 = system: SK-MEL-5
A549 = system: A549
ACHN = system: ACHN
TK-10 = system: TK-10
KM12 = system: KM12
T47D = system: T47D
K562 = system: K562
HT-29 = system: HT-29
IGROV-1 = system: IGROV-1
MDA-MB-435 = system: MDA-MB-435
SK-MEL-28 = system: SK-MEL-28
CAKI-1 = system: CAKI-1
RPMI-8226 = system: RPMI-8226
SF-295 = system: SF-295
DU-145 = system: DU-145
RXF 393 = system: RXF 393
HOP-62 = system: HOP-62

## CC(C)[Si](OC1=C(C(=O)N(C)c2cccc(Cl)c2)CCCC1)(C(C)C)C(C)C
OVCAR-3
  GI50: 14 µM (inactive)
UACC-62
  GI50: 14.7 µM (inactive)
SK-OV-3
  GI50: 16.6 µM (inactive)
UACC-257
  GI50: 12.5 µM (inactive)
COLO 205
  GI50: 15.1 µM (inactive)
SR
  GI50: 9.16 µM (inactive)
OVCAR-4
  GI50: 12.7 µM (inactive)
U-251
  GI50: 13.8 µM (inactive)
MOLT-4
  GI50: 10.4 µM (inactive)
Malme-3M
  GI50: 11.7 µM (inactive)
SW-620
  GI50: 13.6 µM (inactive)
HCT-15
  GI50: 14 µM
MDA-MB-231
  GI50: 16 µM (inactive)
EKVX
  GI50: 15.6 µM (inactive)
CCRF-CEM
  GI50: 29.7 µM (inactive)
LOX IMVI
  GI50: 17.3 µM (inactive)
MCF7
  GI50: 12.3 µM (inactive)
OVCAR-5
  GI50: 10.1 µM (inactive)
NCI-H226
  GI50: 15.8 µM (inactive)
PC-3
  GI50: 8.61 µM (inactive)
MDA-N
  GI50: 17.4 µM (inactive)
M14
  GI50: 15.1 µM (inactive)
786-0
  GI50: 18.3 µM (inactive)
HL-60
  GI50: 5.61 µM (inactive)
NCI-H23
  GI50: 11.7 µM (inactive)
SF-268
  GI50: 13.3 µM (inactive)
SK-MEL-2
  GI50: 15.5 µM (inactive)
NCI/ADR-RES
  GI50: 12.6 µM (inactive)
OVCAR-8
  GI50: 16.8 µM (inactive)
SNB-75
  GI50: 10.4 µM (inactive)
HCC 2998
  GI50: 17 µM (inactive)
UO-31
  GI50: 14.5 µM (inactive)
SNB-19
  GI50: 16.6 µM (inactive)
A498
  GI50: 16.9 µM (inactive)
Hs-578T
  GI50: 12.5 µM (inactive)
NCI-H460
  GI50: 14.1 µM (inactive)
HOP-92
  GI50: 12.4 µM (inactive)
SF-539
  GI50: 17.3 µM (inactive)
SK-MEL-5
  GI50: 14.1 µM (inactive)
A549
  GI50: 4.41 µM (inactive)
ACHN
  GI50: 16.2 µM (inactive)
TK-10
  GI50: 15.4 µM (inactive)
KM12
  GI50: 13.5 µM (inactive)
T47D
  GI50: 2.91 µM (inactive)
K562
  GI50: 4.94 µM (inactive)
HT-29
  GI50: 15.3 µM (inactive)
IGROV-1
  GI50: 17.2 µM (inactive)
MDA-MB-435
  GI50: 15.5 µM (inactive)
SK-MEL-28
  GI50: 13.6 µM (inactive)
CAKI-1
  GI50: 13.2 µM (inactive)
RPMI-8226
  GI50: 8.73 µM (inactive)
SF-295
  GI50: 11 µM (inactive)
DU-145
  GI50: 11.7 µM (inactive)
RXF 393
  GI50: 3.4 µM (inactive)
HOP-62
  GI50: 17.6 µM (inactive)
